Reference: patent US20250066363A1, “Bicyclic DGK Inhibitors” (Incyte Corporation, priority 2023, published 2025)
pIC50: −log10 of the molar value.

What was measured:
[1] = biological target: DGKα (Homo sapiens (Human), UniProt P23743); assay: In vitro DGKα inhibition assay (ADP-Glo); type: biochemical; details: first column of Table A; His-tagged human recombinant DGKα 0.1 nM, 50 μM ATP, 20 μM DLG
[2] = biological target: DGKζ (Homo sapiens (Human), UniProt Q13574); assay: In vitro DGKζ inhibition assay (ADP-Glo); type: biochemical; details: second column of Table A, head printed DGKα, presumably DGKζ; His-tagged human recombinant DGKζ 0.4 nM, 30 μM ATP, 20 μM DLG
Sequence of DGKζ (Q13574 whole entry): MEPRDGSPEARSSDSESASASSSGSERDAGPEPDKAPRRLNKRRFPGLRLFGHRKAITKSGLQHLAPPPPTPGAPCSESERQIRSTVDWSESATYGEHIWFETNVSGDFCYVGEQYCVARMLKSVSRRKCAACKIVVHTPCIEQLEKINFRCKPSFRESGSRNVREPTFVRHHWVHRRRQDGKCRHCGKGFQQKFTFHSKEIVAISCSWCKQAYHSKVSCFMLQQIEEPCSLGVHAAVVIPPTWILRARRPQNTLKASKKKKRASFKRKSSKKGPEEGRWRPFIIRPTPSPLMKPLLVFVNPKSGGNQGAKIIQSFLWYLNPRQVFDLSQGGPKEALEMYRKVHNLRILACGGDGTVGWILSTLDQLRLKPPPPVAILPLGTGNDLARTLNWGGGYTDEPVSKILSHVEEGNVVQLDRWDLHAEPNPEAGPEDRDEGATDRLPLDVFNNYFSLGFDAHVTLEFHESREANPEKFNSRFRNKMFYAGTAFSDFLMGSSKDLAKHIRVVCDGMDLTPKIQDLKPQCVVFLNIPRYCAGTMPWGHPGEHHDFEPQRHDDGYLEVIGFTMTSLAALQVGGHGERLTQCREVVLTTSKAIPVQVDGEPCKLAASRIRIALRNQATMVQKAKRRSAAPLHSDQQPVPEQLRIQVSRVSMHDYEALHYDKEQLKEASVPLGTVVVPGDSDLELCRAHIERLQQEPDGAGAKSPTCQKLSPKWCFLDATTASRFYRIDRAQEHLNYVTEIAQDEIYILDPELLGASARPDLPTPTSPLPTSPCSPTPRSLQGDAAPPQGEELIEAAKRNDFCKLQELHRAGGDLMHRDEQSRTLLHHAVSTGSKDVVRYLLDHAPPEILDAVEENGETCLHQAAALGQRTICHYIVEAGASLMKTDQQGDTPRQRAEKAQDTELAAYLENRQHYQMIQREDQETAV

Sequence of DGKα (P23743 whole entry): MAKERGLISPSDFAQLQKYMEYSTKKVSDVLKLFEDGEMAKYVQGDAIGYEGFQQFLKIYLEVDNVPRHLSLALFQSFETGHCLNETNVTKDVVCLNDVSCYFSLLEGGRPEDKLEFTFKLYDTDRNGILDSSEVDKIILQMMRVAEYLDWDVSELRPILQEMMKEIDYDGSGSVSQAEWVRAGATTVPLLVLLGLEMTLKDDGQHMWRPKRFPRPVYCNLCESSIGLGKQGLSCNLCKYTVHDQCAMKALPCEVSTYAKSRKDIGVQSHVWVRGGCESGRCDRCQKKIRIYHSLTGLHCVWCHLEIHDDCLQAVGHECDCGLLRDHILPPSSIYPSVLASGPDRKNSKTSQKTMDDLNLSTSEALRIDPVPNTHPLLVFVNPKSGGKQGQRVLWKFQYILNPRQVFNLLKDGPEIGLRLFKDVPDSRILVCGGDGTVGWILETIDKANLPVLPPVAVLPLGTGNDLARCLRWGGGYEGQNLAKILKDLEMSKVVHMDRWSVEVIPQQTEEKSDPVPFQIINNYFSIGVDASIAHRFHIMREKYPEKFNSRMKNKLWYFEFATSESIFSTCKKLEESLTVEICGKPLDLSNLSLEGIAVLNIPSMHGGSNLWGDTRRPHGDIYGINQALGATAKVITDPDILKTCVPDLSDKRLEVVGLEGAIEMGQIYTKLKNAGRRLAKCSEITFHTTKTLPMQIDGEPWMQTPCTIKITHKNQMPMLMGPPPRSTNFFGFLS

| pIC50 [1] | pIC50 [2] | Compound |
| --- | --- | --- |
| ≥ 8.00 | ≥ 8.00 | CC[C@@H]1CN(c2nc(=O)n(C)c3c2nc(C)n3C[C@@H]2CCCO2)[C@@H](C)CN1[C@H](CC)c1ccc(C(F)(F)F)cc1 [Example 29, 6-((2S,5R)-5-ethyl-2-methyl-4-((R)-1-(4-(trifluoromethyl)phenyl)propyl)piperazin-1-yl)-3,8-dimethyl-9-(((S)-tetrahydrofuran-2-yl)methyl)-3,9-dihydro-2H-purin-2-one] |
| ≥ 8.00 | ≥ 8.00 | Cc1nc2c(N3C[C@@H](C)N([C@@H](c4ccc5ccc(C(F)(F)F)cc5n4)C(C)C)C[C@@H]3C)nc(=O)n(C)c2n1C[C@@H]1CCCO1 [Example 49, 6-((2S,5R)-2,5-Dimethyl-4-((R)-2-methyl-1-(7-(trifluoromethyl)quinolin-2-yl)propyl)piperazin-1-yl)-3,8-dimethyl-9-(((S)-tetrahydrofuran-2-yl)methyl)-3,9-dihydro-2H-purin-2-one] |
| ≥ 8.00 | ≥ 8.00 | Cc1nc2c(N3C[C@@H](C)N([C@@H](c4ccc5cc(F)ccc5n4)C(C)C)C[C@@H]3C)nc(=O)n(C)c2n1C[C@@H]1CCCO1 [Example 48, 6-((2S,5R)-4-((R)-1-(6-fluoroquinolin-2-yl)-2-methylpropyl)-2,5-dimethylpiperazin-1-yl)-3,8-dimethyl-9-(((S)-tetrahydrofuran-2-yl)methyl)-3,9-dihydro-2H-purin-2-one] |
| ≥ 8.00 | ≥ 8.00 | CC[C@@H]1CN(c2nc(=O)n(C)c3c2nc(C)n3C[C@@H]2CCCO2)[C@@H](C)CN1C(c1ccc(C(F)(F)F)c(F)c1)C(C)C (single isomer, unassigned) [Example 46] |

More lines, now with the values behind:

| Compound | pIC50 [1] | pIC50 [2] |
| --- | --- | --- |
| C[C@@H]1CN(c2nc(=O)n(C)c3c2nnn3C[C@H]2CCCO2)[C@@H](C)CN1C(c1ccc(C(F)(F)F)cc1)C1CC(F)(F)C1 (stereo partly drawn) [Example 43, 7-((2S,5R)-4-((3,3-Difluorocyclobutyl)(4-(trifluoromethyl)phenyl)methyl)-2,5-dimethylpiperazin-1-yl)-4-methyl-3-(((R)-tetrahydrofuran-2-yl)methyl)-3,4-dihydro-5H-[1,2,3]triazolo[4,5-d]pyrimidin-5-one] | ≥ 8.00 | ≥ 8.00 |
| CC[C@@H]1CN(c2nc(=O)n(C)c3c2nnn3C[C@H]2CCCO2)[C@@H](C)CN1[C@H](c1ccc(Cl)cc1)[C@@H]1CC1(F)F [Example 22, 7-((2S,5R)-4-((S)-(4-Chlorophenyl)((S)-2,2-difluorocyclopropyl)methyl)-5-ethyl-2-methylpiperazin-1-yl)-4-methyl-3-(((R)-tetrahydrofuran-2-yl)methyl)-3,4-dihydro-5H-[1,2,3]triazolo[4,5-d]pyrimidin-5-one] | ≥ 8.00 | ≥ 7.00 |
| C[C@@H]1CN(c2nc(=O)n(C)c3c2ncn3CC2(O)CCC2)[C@@H](C)CN1C(c1ccc(Cl)cc1)C1CC(F)(F)C1 (stereo partly drawn) [Example 67, 6-((2S,5R)-4-((4-Chlorophenyl)(3,3-difluorocyclobutyl)methyl)-2,5-dimethylpiperazin-1-yl)-9-((1-hydroxycyclobutyl)methyl)-3-methyl-3,9-dihydro-2H-purin-2-one] | ≥ 8.00 | ≥ 8.00 |
| C[C@@H]1CN(c2nc(=O)n(C)c3c2nnn3C[C@H]2CCCO2)[C@@H](C)CN1C(c1ccc(C(F)(F)F)cn1)c1ccc(C(F)(F)F)cn1 [Example 33, 7-((2S,5R)-4-(Bis(5-(trifluoromethyl)pyridin-2-yl)methyl)-2,5-dimethylpiperazin-1-yl)-4-methyl-3-(((R)-tetrahydrofuran-2-yl)methyl)-3,4-dihydro-5H-[1,2,3]triazolo[4,5-d]pyrimidin-5-one] | ≥ 8.00 | ≥ 8.00 |
| Cc1nc2c(N3C[C@@H](C)N(C(c4ccc(F)cc4)c4ccc(F)cc4)C[C@@H]3C)cc(=O)n(C)c2n1C[C@@H]1CCCO1 [Example 11, 7-((2S,5R)-4-(Bis(4-fluorophenyl)methyl)-2,5-dimethylpiperazin-1-yl)-2,4-dimethyl-3-(((S)-tetrahydrofuran-2-yl)methyl)-3,4-dihydro-5H-imidazo[4,5-b]pyridin-5-one] | ≥ 8.00 | ≥ 8.00 |
| C[C@@H]1CN(c2nc(=O)n(C)c3c2ccn3C[C@@H]2CCCO2)[C@@H](C)CN1C(c1ccc(F)cc1)c1ccc(F)cc1 [Example 6, 4-((2S,5R)-4-(Bis(4-fluorophenyl)methyl)-2,5-dimethylpiperazin-1-yl)-1-methyl-7-(((S)-tetrahydrofuran-2-yl)methyl)-1,7-dihydro-2H-pyrrolo[2,3-d]pyrimidin-2-one] | ≥ 8.00 | ≥ 7.00 |
